Patent US11708376B2 (VIRGINIA TECH INTELLECTUAL PROPERTIES, INC., priority 2018, dated 2023)
pEC50: −log10 of the molar value.

These molecules were tested on whole cells (NMuLi, C2Cl2, and L6 cells, isolated cardiomyocytes, human primary fibroblasts) (assay: Oxygen consumption rate (OCR) in whole cells, Seahorse XF-24 Flux Analyzer). Details: cell type for Table 1 not stated, read-out: OCR Activity (increase in OCR), binned EC50.
Type: cell-based
Procedure: Biological activities of the compounds synthesized is determined by determining increase in oxygen consumption rate (OCR).
Oxygen consumption rate (OCR) in whole cells is measured in general accordance with the method of Kenwood B M et al. (Mol. Met. (2014) 3: 114-123).
OCR is measured using a Seahorse XF-24 Flux Analyzer (Seahorse Biosciences, North Billerica, Mass.). NMuLi, C2Cl2, and L6 cells are seeded in a Seahorse 24-well tissue culture plate at a density of 3.5×10^4 cells/well, isolated cardiomyocytes at a density of 4×10^4 cells/well, and human primary fibroblasts at a density of 1.1×10^4 cells/well. The cells are then allowed to adhere for 24 h. Prior to the assay, the media is changed to unbuffered DMEM containing pyruvate and glutamine (Gibco #12800-017, pH=7.4 at 37° C.) and the cells are equilibrated for 30 mins at 37° C. Compounds are injected during the assay and OCR is measured using 2 min measurement periods.
2-3 wells are used per condition and averaged over three plates (n=6-9). Statistical significance is determined by two-way ANOVA with Bonfenoni's posttest.
Activities are reported as binned EC50 values: A=5 μM or less; B=>5 to 20 μM; C=over 20 μM; NA=no effect.

Row | Structure (SMILES) | pEC50
1 | COc1nc2[nH]c(C(F)(F)F)nc2nc1Nc1ccc(OC(F)(F)F)cc1 [Compound 2-1, 6-methoxy-N-(4-(trifluoromethoxy)phenyl)-2-(trifluoromethyl)-1H-imidazo[4,5-b]pyrazin-5-amine] | < 4.70
2 | CCCCc1ccc(Nc2nc3nc(C(F)(F)F)[nH]c3nc2OC)cc1 [Compound 2-2, 6-methoxy-N-(4-(N-butyl)phenyl)-2-(trifluoromethyl)-1H-imidazo[4,5-b]pyrazin-5-amine] | 4.70 to 5.30
3 | COc1nc2[nH]c(C(F)(F)F)nc2nc1Nc1cc(C(F)(F)F)ccc1F [Compound 2-3, 6-methoxy-N-(2-fluoro-5-(trifluoromethyl)phenyl)-2-(trifluoromethyl)-1H-imidazo[4,5-b]pyrazin-5-amine] | < 4.70
4 | COc1nc2[nH]c(C(F)(F)F)nc2nc1Nc1cccc(OC(F)(F)F)c1 [Compound 2-4, 6-methoxy-N-(3-(trifluoromethoxy)phenyl)-2-(trifluoromethyl)-1H-imidazo[4,5-b]pyrazin-5-amine] | 4.70 to 5.30
5 | COc1nc2[nH]c(C(F)(F)F)nc2nc1Nc1cc(C(F)(F)F)ccc1C [Compound 2-5, 6-methoxy-N-(2-methyl-5-(trifluoromethyl)phenyl)-2-(trifluoromethyl)-1H-imidazo[4,5-b]pyrazin-5-amine] | 4.70 to 5.30
6 | COc1nc2[nH]c(C(F)(F)F)nc2nc1Nc1cccc(C(F)(F)F)c1F [Compound 2-6, 6-methoxy-N-(2-fluoro-3-(trifluoromethyl)phenyl)-2-(trifluoromethyl)-1H-imidazo[4,5-b]pyrazin-5-amine] | ≥ 5.30
7 | COc1nc2[nH]c(C(F)(F)F)nc2nc1Nc1cc(C(F)(F)F)cc(C(F)(F)F)c1 [Compound 2-8, 6-methoxy-(3,5-bis(trifluoromethyl)phenyl)-2-(trifluoromethyl)-1H-imidazo[4,5-b]pyrazin-5-amine] | 4.70 to 5.30
8 | COc1nc2[nH]c(C(F)(F)F)nc2nc1Nc1ccccc1F [Compound 2-9, 6-methoxy-(2-fluorophenyl)-2-(trifluoromethyl)-1H-imidazo[4,5-b]pyrazin-5-amine] | 4.70 to 5.30
9 | COc1nc2[nH]c(C(F)(F)F)nc2nc1Nc1ccc(OC(F)(F)F)c(F)c1 [Compound 2-13, 6-methoxy-N-(3-fluoro-4-(trifluoromethoxy)phenyl)-2-(trifluoromethyl)-1H-imidazo[4,5-b]pyrazin-5-amine] | 4.70 to 5.30
10 | COc1nc2[nH]c(C(F)(F)F)nc2nc1Nc1ccc(C(F)(F)F)cc1F [Compound 2-14, 6-methoxy-N-(2-fluoro-4-(trifluoromethyl)phenyl)-2-(trifluoromethyl)-1H-imidazo[4,5-b]pyrazin-5-amine] | ≥ 5.30
11 | COc1nc2[nH]c(C(F)(F)F)nc2nc1Nc1cc(F)cc(F)c1 [Compound 2-15, 6-methoxy-N-(3,5-difluorophenyl)-2-(trifluoromethyl)-1H-imidazo[4,5-b]pyrazin-5-amine] | < 4.70
12 | COc1nc2[nH]c(C(F)(F)F)nc2nc1Nc1cccc(F)c1F [Compound 2-16, 6-methoxy-N-(2,3-difluorophenyl)-2-(trifluoromethyl)-1H-imidazo[4,5-b]pyrazin-5-amine] | 4.70 to 5.30
13 | COc1nc2[nH]c(C(F)(F)F)nc2nc1Nc1ccccc1C(F)(F)F [Compound 2-17] | ≥ 5.30
14 | COc1nc2[nH]c(C(F)(F)F)nc2nc1Nc1ccc(-c2ccccc2)cc1 [Compound 2-18, N-([1,1′-biphenyl]-4-yl)-6-methoxy-2-(trifluoromethyl)-1H-imidazo[4,5-b]pyrazin-5-amine] | < 4.70
15 | COc1nc2[nH]c(C(F)(F)F)nc2nc1Nc1ccc(C(C)(C)C)cc1 [Compound 2-19, 6-methoxy-N-(4-(tert-butyl)phenyl)-2-(trifluoromethyl)-1H-imidazo[4,5-b]pyrazin-5-amine] | 4.70 to 5.30
16 | COc1nc2[nH]c(C(F)(F)F)nc2nc1Nc1ccc2ccccc2c1 [Compound 2-20, 6-methoxy-N-(naphthalen-2-yl)-2-(trifluoromethyl)-1H-imidazo[4,5-b]pyrazin-5-amine] | 4.70 to 5.30
17 | COc1nc2[nH]c(C(F)(F)F)nc2nc1Nc1ccc(C(F)(F)F)cc1 [Compound 2-22, 6-methoxy-N-(4-(trifluoromethyl)phenyl)-2-(trifluoromethyl)-1H-imidazo[4,5-b]pyrazin-5-amine] | 4.70 to 5.30
18 | COc1nc2[nH]c(C(F)(F)F)nc2nc1Nc1ccc(C(F)(F)F)c(F)c1 [Compound 2-23, 6-methoxy-N-(3-fluoro-4-(trifluoromethyl)phenyl)-2-(trifluoromethyl)-1H-imidazo[4,5-b]pyrazin-5-amine] | < 4.70

Row | Structure (SMILES) | pEC50
19 | COc1nc2[nH]c(C(F)(F)F)nc2nc1Nc1ccc(Cl)cc1 [Compound 2-26, 6-methoxy-N-(4-chlorophenyl)-2-(trifluoromethyl)-1H-imidazo[4,5-b]pyrazin-5-amine] | 4.70 to 5.30
20 | COc1nc2[nH]c(C(F)(F)F)nc2nc1Nc1ccc(I)cc1 [Compound 2-30, 6-methoxy-N-(4-iodophenyl)-2-(trifluoromethyl)-1H-imidazo[4,5-b]pyrazin-5-amine] | 4.70 to 5.30
21 | COc1nc2[nH]c(C(F)(F)F)nc2nc1Nc1cccc(I)c1 [Compound 2-31, 6-methoxy-N-(3-iodophenyl)-2-(trifluoromethyl)-1H-imidazo[4,5-b]pyrazin-5-amine] | 4.70 to 5.30
22 | COc1nc2[nH]c(C(F)(F)F)nc2nc1Nc1cccc(C(F)(F)F)c1 [Compound 2-32, 6-methoxy-N-(3-(trifluoromethyl)phenyl)-2-(trifluoromethyl)-1H-imidazo[4,5-b]pyrazin-5-amine] | 4.70 to 5.30
23 | COc1nc2[nH]c(C(F)(F)F)nc2nc1Nc1ccc(C(C)(C)C)cc1F [Compound 2-33, 6-methoxy-N-(2-fluoro-4-(tert-butyl)phenyl)-2-(trifluoromethyl)-1H-imidazo[4,5-b]pyrazin-5-amine] | 4.70 to 5.30
24 | COc1nc2[nH]c(C(F)(F)C(F)(F)F)nc2nc1Nc1cccc(C(F)(F)F)c1F [Compound 2-34] | 4.70 to 5.30
25 | CCCCOc1nc2[nH]c(C(F)(F)F)nc2nc1Nc1ccc(OC(F)(F)F)cc1 [Compound 2-35, 6-butoxy-N-(4-(trifluoromethoxy)phenyl)-2-(trifluoromethyl)-1H-imidazo[4,5-b]pyrazin-5-amine] | < 4.70
26 | FC(F)(F)COc1nc2[nH]c(C(F)(F)F)nc2nc1Nc1ccc(OC(F)(F)F)cc1 [Compound 2-36, 6-(2,2,2-trifluoroethoxy)-N-(4-(trifluoromethoxy)phenyl)-2-(trifluoromethyl)-1H-imidazo[4,5-b]pyrazin-5-amine] | ≥ 5.30
27 | CCOc1nc2[nH]c(C(F)(F)F)nc2nc1Nc1ccc(OC(F)(F)F)cc1 [Compound 2-37, 6-ethoxy-N-(4-(trifluoromethoxy)phenyl)-2-(trifluoromethyl)-1H-imidazo[4,5-b]pyrazin-5-amine] | < 4.70
28 | CCOc1nc2[nH]c(C(F)(F)F)nc2nc1Nc1ccc(OC(F)(F)F)cc1F [Compound 2-38, 6-ethoxy-N-(2-fluoro-4-(trifluoromethoxy)phenyl)-2-(trifluoromethyl)-1H-imidazo[4,5-b]pyrazin-5-amine] | 4.70 to 5.30
29 | CCCOc1nc2[nH]c(C(F)(F)F)nc2nc1Nc1ccc(OC(F)(F)F)cc1F [Compound 2-39, 6-propoxy-N-(2-fluoro-4-(trifluoromethoxy)phenyl)-2-(trifluoromethyl)-1H-imidazo[4,5-b]pyrazin-5-amine] | 4.70 to 5.30
30 | COc1nc2[nH]c(C(F)(F)F)nc2nc1Oc1ccc(C(F)(F)F)cc1 [Compound 2-40, 6-methoxy-2-(trifluoromethyl)-5-(4-(trifluoromethyl)phenoxy)-1H-imidazo[4,5-b]pyrazine] | ≥ 5.30
31 | COc1nc2[nH]c(C(F)(F)F)nc2nc1Nc1ccc(OC(F)(F)F)cc1I [Compound 2-41, N-(2-iodo-4-(trifluoromethoxy)phenyl)-6-methoxy-2-(trifluoromethyl)-1H-imidazo[4,5-b]pyrazin-5-amine] | 4.70 to 5.30
32 | COc1nc2[nH]c(C(F)(F)F)nc2nc1Nc1ccc(OC(F)(F)F)cc1Cl [Compound 2-42, N-(2-chloro-4-(trifluoromethoxy)phenyl)-6-methoxy-2-(trifluoromethyl)-1H-imidazo[4,5-b]pyrazin-5-amine] | 4.70 to 5.30
33 | COc1nc2[nH]c(C(F)(F)F)nc2nc1Nc1ccc(OC(F)(F)F)c(Cl)c1 [Compound 2-43, N-(3-chloro-4-(trifluoromethoxy)phenyl)-6-methoxy-2-(trifluoromethyl)-1H-imidazo[4,5-b]pyrazin-5-amine] | < 4.70
34 | COc1nc2[nH]c(C(F)(F)F)nc2nc1Nc1ccc(OC(F)(F)F)c(Br)c1 [Compound 2-44, N-(3-bromo-4-(trifluoromethoxy)phenyl)-6-methoxy-2-(trifluoromethyl)-1H-imidazo[4,5-b]pyrazin-5-amine] | < 4.70
35 | CC(C)Oc1nc2nc(C(F)(F)F)[nH]c2nc1Nc1ccc(C(F)(F)F)cc1 [Compound 2-45, 5-isopropoxy-2-(trifluoromethyl)-N-(4-(trifluoromethyl)phenyl)-1H-imidazo[4,5-b]pyrazin-6-amine] | < 4.70
36 | Fc1ccccc1Oc1nc2nc(C(F)(F)F)[nH]c2nc1Nc1ccc(C(F)(F)F)cc1 [Compound 2-46, 5-(2-fluorophenoxy)-2-(trifluoromethyl)-N-(4-(trifluoromethyl)phenyl)-1H-imidazo[4,5-b]pyrazin-6-amine] | 4.70 to 5.30
